Values of other authors as cited in patent US20220031669A1, “Compositions for Broad Spectrum Topical Antimicrobials” (priority 2020, published 2022).

Conditions: thiol group of acetylcysteine

- pKa of SH: 9.4
SMILES: CC(=O)N[C@@H](CS)C(=O)O [acetylcysteine]
